Test results published in patent US12344600B2, “c-Myc mRNA translation modulators and uses thereof in the treatment of cancer” (Anima Biotech Inc., priority 2022, dated 2025).

Test system: c-Myc
Assay: c-Myc immunofluorescence assay
Assay type: cell-based, human
Details: A549 cells, 24 hours, anti-c-Myc immunofluorescence
Procedure: A549 human non-small cell lung carcinoma cells were treated for 24 hours with increasing compound concentration, cells were fixed and stained with a nuclei stain (DAPI) and anti-c-Myc fluorescent antibody. The c-Myc signal was quantified by image analysis, and data was exported and analyzed using TIBCO Spotfire® (TIBCO Corporation). Dose response curves were generated and fitted with logaristic regression to calculate potency (EC50 values). Potency values are presented in Table 2 for all compounds and are shown for selected compounds (FIG. 3).
A549 cells were grown in 384-wells plates (Perkin Elmer, Cat. 6057300) for 48 hours, treated with compounds and then fixed for 20 min in 4% paraformaldehyde. After that permeabilization was done using 0.1% Triton X-100 in PBS for 20 min. Primary anti-c-Myc antibody (Abcam, ab32072) staining was performed for 90 min at room temperature. Cells then were washed twice with PBS and incubated with secondary antibody (Abcam, ab150075) for 90 min at room temperature. Nuclei were stained with DAPI for 10 min and washed twice with PBS.
Cell images were taken with Operetta (Perkin Elmer, USA), a wide-field fluorescence microscope at 20× magnification. After acquisition, the images were transferred to Columbus software (Perkin-Elmer) for image analysis. In Columbus, cells were identified by their nucleus, using the “Find Nuceli” module and cytoplasm was detected based on the secondary antibody channel. Subsequently, the fluorescent signal was enumerated in the identified cell region. Then data was exported to a data analysis and visualization software, Tibco Spotfire, USA.

| Compound | Myc Efficacy (−LogEC50) |
| --- | --- |
| CC1CCCN(CCCNC(=O)C2CCN(c3nc(-c4ccc(Cl)cc4)no3)CC2)C1 (stereo not drawn) [Compound 132, 1-(3-(4-chlorophenyl)-1,2,4-oxadiazol-5-yl)-N-(3-(3-methylpiperidin-1-yl)propyl)piperidine-4-carboxamide] | + (+ >3 and <5) |
| COc1ccc(CNC(=O)C2CCN(c3nc(-c4ccc(C(C)C)cc4)no3)CC2)cc1 [Compound 133, 1-(3-(4-isopropylphenyl)-1,2,4-oxadiazol-5-yl)-N-(4-methoxybenzyl)piperidine-4-carboxamide] | + (+ >3 and <5) |
| COc1ccc(-c2noc(N3CCC(C(=O)N4CCC(OC)CC4)CC3)n2)cc1 [Compound 134, (1-(3-(4-methoxyphenyl)-1,2,4-oxadiazol-5-yl)piperidin-4-yl)(4-methoxypiperidin-1-yl)methanone] | + (+ >3 and <5) |
| COc1ccc(-c2noc(N3CCC(Oc4ccccc4)CC3)n2)cc1 [Compound 135, 3-(4-methoxyphenyl)-5-(4-phenoxypiperidin-1-yl)-1,2,4-oxadiazole] | − (− ≤3) |
| COc1ccc(-c2noc(N3CCC(c4ccccc4)CC3)n2)cc1 [Compound 136, 3-(4-methoxyphenyl)-5-(4-phenylpiperidin-1-yl)-1,2,4-oxadiazole] | − (− ≤3) |
| CNC(=O)C1CCN(c2nc(-c3ccc(OC)cc3)no2)CC1 [Compound 137, 1-(3-(4-methoxyphenyl)-1,2,4-oxadiazol-5-yl)-N-methylpiperidine-4-carboxamide] | + (+ >3 and <5) |
| COc1ccc(-c2noc(N3CCNCC3)n2)cc1 [Compound 138, 3-(4-methoxyphenyl)-5-(piperazin-1-yl)-1,2,4-oxadiazole] | + (+ >3 and <5) |
| COc1ccc(-c2noc(N3CCC(C(=O)N4CCOCC4)CC3)n2)cc1 [Compound 139, (1-(3-(4-methoxyphenyl)-1,2,4-oxadiazol-5-yl)piperidin-4-yl)(morpholino)methanone] | + (+ >3 and <5) |
| COc1ccc(-c2noc(N3CCC(C(=O)NCCCN4CCC(C)CC4)CC3)n2)cc1 [Compound 140, 1-(3-(4-methoxyphenyl)-1,2,4-oxadiazol-5-yl)-N-(3-(4-methylpiperidin-1-yl)propyl)piperidine-4-carboxamide] | + (+ >3 and <5) |
| COc1ccc(-c2noc(N3CCC(C(=O)NCCCN4CCC[C@H](C)C4)CC3)n2)cc1 [Compound 141, (S)-1-(3-(4-methoxyphenyl)-1,2,4-oxadiazol-5-yl)-N-(3-(3-methylpiperidin-1-yl)propyl)piperidine-4-carboxamide] | − (− ≤3) |
| COc1ccc(-c2noc(N3CCC(C(=O)NCCCN4CCC[C@@H](C)C4)CC3)n2)cc1 [Compound 142, (R)-1-(3-(4-methoxyphenyl)-1,2,4-oxadiazol-5-yl)-N-(3-(3-methylpiperidin-1-yl)propyl)piperidine-4-carboxamide] | + (+ >3 and <5) |
| COc1ccc(-c2noc(N3CCC(C(=O)Nc4ccccc4)CC3)n2)cc1 [Compound 143, 1-(3-(4-methoxyphenyl)-1,2,4-oxadiazol-5-yl)-N-phenylpiperidine-4-carboxamide] | ++ (++ ≥5 and <6) |
| COc1ccc(-c2noc(N3CCN(C(=O)N4CCOCC4)CC3)n2)cc1 [Compound 144, (4-(3-(4-methoxyphenyl)-1,2,4-oxadiazol-5-yl)piperazin-1-yl)(morpholino)methanone] | + (+ >3 and <5) |
| COc1ccc(-c2noc(N3CCN(C(=O)N4CCC(C)CC4)CC3)n2)cc1 [Compound 145, (4-(3-(4-methoxyphenyl)-1,2,4-oxadiazol-5-yl)piperazin-1-yl)(4-methylpiperidin-1-yl)methanone] | + (+ >3 and <5) |
| COc1ccc(-c2noc(N3CCN(C(=O)N4CCS(=O)(=O)CC4)CC3)n2)cc1 [Compound 146, (1,1-dioxidothiomorpholino)(4-(3-(4-methoxyphenyl)-1,2,4-oxadiazol-5-yl)piperazin-1-yl)methanone] | + (+ >3 and <5) |
| COc1ccc(-c2noc(N3CCN(C(C)=O)CC3)n2)cc1 [Compound 147, 1-(4-(3-(4-methoxyphenyl)-1,2,4-oxadiazol-5-yl)piperazin-1-yl)ethan-1-one] | + (+ >3 and <5) |
| COc1ccc(-c2noc(N3CCN(C(=O)C4CCOCC4)CC3)n2)cc1 [Compound 148, (4-(3-(4-methoxyphenyl)-1,2,4-oxadiazol-5-yl)piperazin-1-yl)(tetrahydro-2H-pyran-4-yl)methanone] | + (+ >3 and <5) |
| COc1ccc(-c2noc(CCC(=O)NC[C@H]3CCN(Cc4ccc(C)cc4)C3)n2)cc1 [Compound 149, (R)-3-(3-(4-methoxyphenyl)-1,2,4-oxadiazol-5-yl)-N-((1-(4-methylbenzyl)pyrrolidin-3-yl)methyl)propanamide] | ++ (++ ≥5 and <6) |
| COc1ccc(-c2noc(CCC(=O)NC[C@@H]3CCN(Cc4ccc(C)cc4)C3)n2)cc1 [Compound 150, (S)-3-(3-(4-methoxyphenyl)-1,2,4-oxadiazol-5-yl)-N-((1-(4-methylbenzyl)pyrrolidin-3-yl)methyl)propanamide] | ++ (++ ≥5 and <6) |
| COc1ccc(-c2noc(CCC(=O)NCCCN3CCC(Cc4ccccc4)CC3)n2)cc1 [Compound 151, N-(3-(4-benzylpiperidin-1-yl)propyl)-3-(3-(4-methoxyphenyl)-1,2,4-oxadiazol-5-yl)propanamide] | ++ (++ ≥5 and <6) |
| COc1ccc(-c2noc(N3CCC(C(=O)NCCCN4CCC(Cc5ccccc5)CC4)CC3)n2)cc1 [Compound 152, N-(3-(4-benzylpiperidin-1-yl)propyl)-1-(3-(4-methoxyphenyl)-1,2,4-oxadiazol-5-yl)piperidine-4-carboxamide] | +++ (+++ ≥6) |
| COc1ccc(-c2noc(C3CN(C(=O)N4CCC(C)CC4)C3)n2)cc1 [Compound 153, (3-(3-(4-methoxyphenyl)-1,2,4-oxadiazol-5-yl)azetidin-1-yl)(4-methylpiperidin-1-yl)methanone] | + (+ >3 and <5) |
| Cc1ccc(CN2CCC(CNC(=O)C3CCN(c4nc(-c5ccc(Cl)cc5)no4)CC3)C2)cc1 (stereo not drawn) [Compound 154, 1-(3-(4-chlorophenyl)-1,2,4-oxadiazol-5-yl)-N-((1-(4-methylbenzyl)pyrrolidin-3-yl)methyl)piperidine-4-carboxamide] | ++ (++ ≥5 and <6) |
| Cc1ccc(CN2CCC(CNC(=O)C3CCN(c4nc(-c5cccc(Cl)c5)no4)CC3)C2)cc1 (stereo not drawn) [Compound 155, 1-(3-(3-chlorophenyl)-1,2,4-oxadiazol-5-yl)-N-((1-(4-methylbenzyl)pyrrolidin-3-yl)methyl)piperidine-4-carboxamide] | ++ (++ ≥5 and <6) |
| Cc1ccc(CN2CCC(CNC(=O)C3CCN(c4nc(-c5ccccc5Cl)no4)CC3)C2)cc1 (stereo not drawn) [Compound 156, 1-(3-(2-chlorophenyl)-1,2,4-oxadiazol-5-yl)-N-((1-(4-methylbenzyl)pyrrolidin-3-yl)methyl)piperidine-4-carboxamide] | + (+ >3 and <5) |
| COc1ccc(-c2cccc(N3CCC(C(=O)NCC4CCN(Cc5ccc(C)cc5)C4)CC3)n2)cc1 (stereo not drawn) [Compound 157, 1-(6-(4-methoxyphenyl)pyridin-2-yl)-N-((1-(4-methylbenzyl)pyrrolidin-3-yl)methyl)piperidine-4-carboxamide] | ++ (++ ≥5 and <6) |
| Cc1ccc(CN2CCC(CNC(=O)C3CCN(c4nc(-c5ccc(C#N)cc5)no4)CC3)C2)cc1 (stereo not drawn) [Compound 158, 1-(3-(4-cyanophenyl)-1,2,4-oxadiazol-5-yl)-N-((1-(4-methylbenzyl)pyrrolidin-3-yl)methyl)piperidine-4-carboxamide] | ++ (++ ≥5 and <6) |
| COc1ccc(-c2noc(N3CCC(C(=O)NCC4CCN(Cc5ccc(C)cc5)C4)CC3)n2)cn1 (stereo not drawn) [Compound 159, 1-(3-(6-methoxypyridin-3-yl)-1,2,4-oxadiazol-5-yl)-N-((1-(4-methylbenzyl)pyrrolidin-3-yl)methyl)piperidine-4-carboxamide] | + (+ >3 and <5) |
| COc1ccc(-c2csc(N3CCC(C(=O)NCC4CCN(Cc5ccc(C)cc5)C4)CC3)n2)cc1 (stereo not drawn) [Compound 160, 1-(4-(4-methoxyphenyl)thiazol-2-yl)-N-((1-(4-methylbenzyl)pyrrolidin-3-yl)methyl)piperidine-4-carboxamide] | ++ (++ ≥5 and <6) |
| COc1ccc(-c2noc(N3CCC(C(=O)NCc4ccncc4)CC3)n2)cc1 [Compound 161, 1-(3-(4-methoxyphenyl)-1,2,4-oxadiazol-5-yl)-N-(pyridin-4-ylmethyl)piperidine-4-carboxamide] | + (+ >3 and <5) |
